Data as given in article PMC6151560, “Antibacterial and Antitubercular Activities of Cinnamylideneacetophenones” (Molecules : A Journal of Synthetic Chemistry and Natural …, 2017).
Values after ≈ are worked out from the molar mass of the structure shown. Like-named read-outs stand apart in the source and are kept apart here.

Key:
[1] = system: Streptococcus mutans (ATCC 25175); assay: Antibacterial broth microdilution (MIC/MBC), S. mutans; conditions: for MIC: ATCC25175, 24 h, read-out: Sm MIC, Streptococcus mutans, broth microdilution, 24 h, tested 3.9 to 500 µM; for MBC: ATCC25175, read-out: Sm MBC
[2] = system: Staphylococcus aureus (ATCC 14458); assay: Antibacterial broth microdilution (MIC/MBC), S. aureus; conditions: for MIC: ATCC14458, 24 h; for MBC: ATCC14458, read-out: Sa MBC
[3] = Partition coefficient log Po/w by HPLC-PDA (OECD method); conditions: for chromatographic logP: n-octanol/water (from HPLC retention on a C-18 column)
[4] = system: Escherichia coli (ATCC 10536); assay: Antibacterial broth microdilution (MIC), E. coli; conditions: for MIC: ATCC10536, 24 h, read-out: Ec MIC
[5] = system: Streptococcus sanguinis (ATCC 10557); assay: Antibacterial broth microdilution (MIC/MBC), S. sanguinis; conditions: for MIC: ATCC10557, 24 h; for MBC: ATCC10557, read-out: Ss MBC
[6] = system: Pseudomonas aeruginosa (ATCC 15442); assay: Antibacterial broth microdilution (MIC), P. aeruginosa; conditions: for MIC: ATCC15442, 24 h, read-out: Pa MIC
[7] = system: Mycobacterium tuberculosis H37Rv (ATCC 27294); assay: Antitubercular REMA (Resazurin Microtiter Assay); format: cell-based; conditions: M. tuberculosis H37Rv, REMA, 7 days, lowest concentration giving 90% inhibition of growth, read-out: Mt MIC
[8] = DPPH radical scavenging ability; conditions: at 1600, 800, 400, and 200 µM; DPPH 100 μM, 30 min, 25 °C
Text: The low selectivity of the cinnamylideneacetophenones 3 and 4 can be correlated with their phenolic nature. Studies report the ability of phenolic compounds to act on widespread radical processes shared by eukaryotic and prokaryotic cells. We hypothesized this behavior may be responsible by simultaneous activity toward bacteria and pulmonary cells. Therefore, we evaluated the radical scavenging ability of 3 and 4 using DPPH (2,2-diphenyl-1-picrylhydrazyl) protocol. […] Altogether, low selectivity of 3 and 4 cannot be strongly related to radical processes. Quercetin and gallic acid were used as positive controls due to their phenolic nature and potent radical scavenging ability.
Radical scavenging activity of compounds 3 and 4 was determined using 2,2-diphenyl-1-picrylhydrazyl (DPPH). Aliquots of 10 µL of 3, 4, and positive controls (quercetin and gallic acid) at concentrations 1600, 800, 400, and 200 μM (in EtOH) were individually added in 190 µL DPPH (100 μM). The mixtures were incubated in the dark at 25 °C for 30 min. Remaining DPPH was determined spectroscopically at 490 nm by blanking against absolute ethanol. Radical scavenging ability was expressed by using mean values obtained from triplicates as the percentage of radicals reduced by calculating the following equation: DPPH scavenging % = [1 − (Asample/A) × 100], where A is test absorbance without sample (only EtOH and DPPH) and Asample is test absorbance with compounds.

[9] = broth microdilution, 24 h, tested 3.9 to 500 µM
[10] = read-out: Sa MIC, Staphylococcus aureus, broth microdilution, 24 h, tested 3.9 to 500 µM
[11] = read-out: Ss MIC, Streptococcus sanguinis, broth microdilution, 24 h, tested 3.9 to 500 µM
[12] = Mycobacterium tuberculosis, 168 h

(2E,4E)-1-(3,4-methylenedioxy)-5-phenylpenta-2,4-dien-1-one [Compound 8]
Sm MIC [1, 9]: >500 µM | Sa MIC [2, 9]: >500 µM | log Po/w ([3]; n-octanol/water, HPLC-PDA method, MeOH:H2O (3:1)): 3.2 | Ec MIC ([4]; broth microdilution, 24 h): >500 µM | Ss MIC [5, 9]: >500 µM | Pa MIC ([6]; broth microdilution, 24 h): >500 µM

COc1cccc(C(=O)/C=C/C=C/c2ccccc2)c1 [Compound 6, (2E,4E)-1-(3-methoxyphenyl)-5-phenylpenta-2,4-dien-1-one]
MIC [1]: ≥ 296 µM | MIC [2, 10]: ≥ 296 µM | MBC [2]: 296 µM (≈ 78.2 µg/mL) | chromatographic logP [3]: 3.3 | MIC [4]: > 500 µM | MIC [5, 11]: ≥ 296 µM | MIC [6]: > 500 µM | MIC [7, 12]: > 200 µM

Nc1cccc(C(=O)/C=C/C=C/c2ccccc2)c1 [Compound 5, (2E,4E)-1-(3-aminophenyl)-5-phenylpenta-2,4-dien-1-one]
MIC [1]: 313 µM (≈ 78 µg/mL) | MBC [1]: 313 µM (≈ 78 µg/mL) | MIC [2, 10]: > 500 µM | chromatographic logP [3]: 2.5 | MIC [4]: > 500 µM | MIC [5, 11]: > 500 µM | MIC [6]: > 500 µM | MIC [7, 12]: > 200 µM

O=C(/C=C/C=C/c1ccccc1)c1ccc([N+](=O)[O-])cc1 [Compound 16, (2E,4E)-1-(4-nitrophenyl)-5-phenylpenta-2,4-dien-1-one]
MIC [1]: > 500 µM | MIC [2, 10]: > 500 µM | chromatographic logP [3]: 3.2 | MIC [4]: > 500 µM | MIC [5, 11]: > 500 µM | MIC [6]: > 500 µM | MIC [7, 12]: > 200 µM

Cc1ccc(C(=O)/C=C/C=C/c2ccccc2)cc1 [Compound 18, (2E,4E)-1-(4-methylphenyl)-5-phenylpenta-2,4-dien-1-one]
MIC [1]: > 500 µM | MIC [2, 10]: > 500 µM | chromatographic logP [3]: 3.5 | MIC [4]: > 500 µM | MIC [5, 11]: > 500 µM | MIC [6]: > 500 µM | MIC [7]: 70.9 µM (≈ 17.6 µg/mL) | MIC [7, 12]: 57.2 to 70.9 µM (≈ 14.2 to 17.6 µg/mL)

[H]/N=C(\N/C(=N/[H])NCCCCCCNC(=N)NC(=N)Nc1ccc(Cl)cc1)Nc1ccc(Cl)cc1 [CHX, chlorhexidine, reference compound]
MIC [1]: 2.4 µM (≈ 1.21 µg/mL) | MBC [1]: 4.7 µM (≈ 2.38 µg/mL) | MIC [5, 11]: 4.7 µM (≈ 2.38 µg/mL) | MBC [5]: 9.5 µM (≈ 4.8 µg/mL) | MIC [6]: 19.4 µM (≈ 9.81 µg/mL)

CC1(C)S[C@@H]2[C@H](NC(=O)Cc3ccccc3)C(=O)N2[C@H]1C(=O)O [PEN, Penicillin G, reference compound]
MIC [4]: 118 µM (≈ 39.5 µg/mL) | MIC [5, 11]: 0.4 µM (≈ 0.134 µg/mL) | MBC [5]: 0.4 µM (≈ 0.134 µg/mL)

CN[C@H](CC(C)C)C(=O)N[C@H]1C(=O)N[C@@H](CC(N)=O)C(=O)N[C@H]2C(=O)N[C@H]3C(=O)N[C@H](C(=O)N[C@H](C(=O)O)c4cc(O)cc(O)c4-c4cc3ccc4O)[C@H](O)c3ccc(c(Cl)c3)Oc3cc2cc(c3O[C@@H]2O[C@H](CO)[C@@H](O)[C@H](O)[C@H]2O[C@H]2C[C@](C)(N)[C@H](O)[C@H](C)O2)Oc2ccc(cc2Cl)[C@H]1O [VAN, vancomycin, reference compound]
MIC ([2]; read-out: Sa MIC): 3.3 µM (≈ 4.78 µg/mL) | MBC [2]: 6.8 µM (≈ 9.86 µg/mL) | MIC [4]: 53.8 µM (≈ 78 µg/mL) | MIC ([5]; read-out: Ss MIC): 3.3 µM (≈ 4.78 µg/mL) | MBC [5]: 3.3 µM (≈ 4.78 µg/mL)

COc1cc(C(=O)/C=C/C=C/c2ccccc2)ccc1O [Compound 9, (2E,4E)-1-(4-hydroxy-3-methoxyphenyl)-5-phenylpenta-2,4-dien-1-one]
MIC [1]: > 500 µM | MIC [2, 10]: 279 µM (≈ 78.2 µg/mL) | MBC [2]: 279 µM (≈ 78.2 µg/mL) | chromatographic logP [3]: 2.7 | MIC [4]: > 500 µM | MIC [5, 11]: > 500 µM | MIC [6]: > 500 µM | MIC [7, 12]: 83.5 µM (≈ 23.4 µg/mL)

O=C(/C=C/C=C/c1ccccc1)c1ccc(F)cc1 [Compound 10, (2E,4E)-1-(4-fluorophenyl)-5-phenylpenta-2,4-dien-1-one]
MIC [1]: > 500 µM | MIC [2, 10]: > 500 µM | chromatographic logP [3]: 3.3 | MIC [4]: > 500 µM | MIC [5, 11]: > 500 µM | MIC [6]: > 500 µM | MIC [7]: 67.4 µM (≈ 17 µg/mL) | MIC [7, 12]: 57.2 to 70.9 µM (≈ 14.4 to 17.9 µg/mL)

O=c1c(O)c(-c2ccc(O)c(O)c2)oc2cc(O)cc(O)c12 [Quercetin, reference compound]
percentages of DPPH scavenging ability [8]: ≥ 95%

O=C(/C=C/C=C/c1ccccc1)c1cccc(C(F)(F)F)c1 [Compound 14, (2E,4E)-1-(3-(trifluoromethyl)phenyl)-5-phenylpenta-2,4-dien-1-one]
MIC [1]: > 500 µM | MIC [2, 10]: > 500 µM | chromatographic logP [3]: 3.7 | MIC [4]: > 500 µM | MIC [5, 11]: > 500 µM | MIC [6]: > 500 µM | MIC [7, 12]: > 200 µM

O=C(/C=C/C=C/c1ccccc1)c1ccc(Cl)c(Cl)c1 [Compound 13, (2E,4E)-1-(3,4-dichlorophenyl)-5-phenylpenta-2,4-dien-1-one]
MIC [1]: > 500 µM | MIC [2, 10]: > 500 µM | chromatographic logP [3]: 4.1 | MIC [4]: > 500 µM | MIC [5, 11]: > 500 µM | MIC [6]: > 500 µM | MIC [7, 12]: > 200 µM

O=C(/C=C/C=C/c1ccccc1)c1cccc([N+](=O)[O-])c1 [Compound 15, (2E,4E)-1-(3-nitrophenyl)-5-phenylpenta-2,4-dien-1-one]
MIC [1]: > 500 µM | MIC [2, 10]: > 500 µM | chromatographic logP [3]: 3.3 | MIC [4]: > 500 µM | MIC [5, 11]: > 500 µM | MIC [6]: > 500 µM | MIC [7, 12]: > 200 µM

O=C(/C=C/C=C/c1ccccc1)c1ccccc1 [Compound 2, (2E,4E)-1,5-diphenylpenta-2,4-dien-1-one]
MIC [1]: > 500 µM | MIC [2, 10]: > 500 µM | chromatographic logP [3]: 3.2 | MIC [4]: > 500 µM | MIC [5, 11]: > 500 µM | MIC [6]: > 500 µM | MIC [7]: 57.2 µM (≈ 13.4 µg/mL) | MIC [7, 12]: 57.2 to 70.9 µM (≈ 13.4 to 16.6 µg/mL)

O=C(O)c1cc(O)c(O)c(O)c1 [gallic acid, reference compound]
percentages of DPPH scavenging ability [8]: ≥ 95%

Cc1cccc(C(=O)/C=C/C=C/c2ccccc2)c1 [Compound 17, (2E,4E)-1-(3-methylphenyl)-5-phenylpenta-2,4-dien-1-one]
MIC [1]: > 500 µM | MIC [2, 10]: > 500 µM | chromatographic logP [3]: 3.6 | MIC [4]: > 500 µM | MIC [5, 11]: > 500 µM | MIC [6]: > 500 µM | MIC [7, 12]: > 200 µM

NNC(=O)c1ccncc1 [ISO, isoniazid, reference compound]
MIC [7, 12]: 0.3 µM (≈ 0.0411 µg/mL)

COc1ccc(C(=O)/C=C/C=C/c2ccccc2)cc1 [Compound 7, (2E,4E)-1-(4-methoxyphenyl)-5-phenylpenta-2,4-dien-1-one]
MIC [1]: ≥ 296 µM | MIC [2, 10]: ≥ 296 µM | chromatographic logP [3]: 3.2 | MIC [4]: > 500 µM | MIC [5, 11]: ≥ 296 µM | MIC [6]: > 500 µM | MIC [7]: 66.6 µM (≈ 17.6 µg/mL) | MIC [7, 12]: 57.2 to 70.9 µM (≈ 15.1 to 18.7 µg/mL)
